Values quoted from earlier work as cited in patent US20160215053A1, “CXCL12 (CHEMOKINE (C-X-C MOTIF) LIGAND 12) AND IGFBP2 INHIBITORS FOR THE APPLICATION IN THE TREATMENT OF DIABETES MELLITUS ASSOCIATED PANCREATIC CANCER” (priority 2013, published 2016).
“Also recorded” adds a separate entry of the source. Like-named read-outs stand apart in the source and are kept apart here. Where no end group is shown, it is not given here.

B1: IL-10: factor that induces PSC activation/trans-differentiation (protein, UniProt P22301 19-178, looked up)
Interleukin-10: SPGQGTQSENSCTHFPGNLPNMLRDLRDAFSRVKTFFQMKDQLDNLLLKESLLEDFKGYLGCQALSEMIQFYLEEVMPQAENQDPDIKAHVNSLGENLKTLRLRLRRCHRFLPCENKSKAVEQVKNAFNKLQEKGIYKAMSEFDIFINYIEAYMTMKIRN
B2: Activin A: factor that induces PSC activation/trans-differentiation (protein, UniProt P08476 311-426, looked up)
Inhibin beta A chain: GLECDGKVNICCKKQFFVSFKDIGWNDWIIAPSGYHANYCEGECPSHIAGTSGSSLSFHSTVINHYRMRGHSPFANLKSCCVPTKLRPMSMLYYDDGQNIIKKDIQNMIVEECGCS
modifications: Inhibin beta A chain
B3: CCK: factor that induces PSC activation/trans-differentiation (peptide, UniProt P06307 21-115, looked up)
Cholecystokinin: QPVPPADPAGSGLQRAEEAPRRQLRVSQRTDGESRAHLGALLARYIQQARKAPSGRMSIVKNLQNLDPSHRISDRDYMGWMDFGRRSAEEYEYPS
modifications: Cholecystokinin

Key:
PSC = conditions: literature references 19-31
BxPC3 cells = conditions: reference 40

Molecule | Effect on PSC (PSC) | also measured
TGFα: factor that induces PSC activation/trans-differentiation | increased proliferation, migration | 
CC=O [Acetaldehide] | increased αSMA expression | 
CCCCC[C@H](O)/C=C/[C@H]1[C@H](O)CC(=O)[C@@H]1C/C=C\CCCC(=O)O [Prosztaglandin E2] | increased proliferation, migration | 
TNFα | increased αSMA expression | 
gasztrin: factor that induces PSC activation/trans-differentiation (QGPWLEEEEEAYGWMDF; ends and bridges not checked; UniProt P01350 76-92, looked up) |  | Effect on PSC (PSC; cell proliferation): decreased proliferation; Effect on PSC (PSC; collagen synthesis): increased collagen synthesis,
PDGF |  | Effect on PSC (PSC; cell proliferation): increased proliferation; Effect on PSC (PSC; fibronectin synthesis): increased FN synthesis
CCO [Ethanol] | type-1 collagen production; also recorded: increased αSMA expression | 
bFGF: factor that induces PSC activation/trans-differentiation | increased proliferation | 
Nc1ccn([C@@H]2O[C@H](CO)[C@@H](O)C2(F)F)c(=O)n1 [gemcitabine] |  | Proportion of cancer cells undergoing gemcitabine induced apoptosis (BxPC3 cells; BxPC3 cells treated with hPSC-CM): 9.4%; Proportion of cancer cells undergoing gemcitabine induced apoptosis (BxPC3 cells; BxPC3 cells, without hPSC-CM treatment): 38.9%
Galektin-1: factor that induces PSC activation/trans-differentiation | increased proliferation | 
B1 | increased type-1 collagen production | 
B2 | increased αSMA expression | 
B3 |  | Effect on PSC (PSC; cell proliferation): decreased proliferation; Effect on PSC (PSC; collagen synthesis): increased collagen synthesis,
